{"source": "patent US20230138400A1", "about": "“METHODS AND PHARMACEUTICAL COMPOSITIONS FOR REPROGRAMING IMMUNE ENVIRONMENT IN A SUBJECT IN NEED THEREOF” (INSERM (INSTITUT NATIONAL DE LA SANTE ET DE LA RECHERCHE …, priority 2016, published 2023)", "key": {"[1]": {"system": "SKMEL-28 cells", "experiment": "Composition of exosomes from SKMEL-28 cells (shCTRL or shLXRbeta) treated with DDA", "type": "cell-based, human", "method": "Exosome characterization. By flow cytometry: (tetraspanin analysis), exosomes (10 μg) were bound onto 10 μl of latex beads (Interfacial Dynamics/Invitrogen) in 200 μl PBS for 1 hour at 25° C. with gentle periodical shaking. Free sites on latex beads were saturated with 100 μl vesicle-free FBS for 30 min at 25° C. Beads with bound exosomes were centrifuged for 5 min at 5000 rpm, washed in 200 μl PBS, and diluted in 100 μl FACS buffer. Specific primary antibody or control isotype (1:50) were added and incubated at room temperature for 30 min. After centrifugation and washing, secondary antibody (1:100) was added and incubated for 30 min at room temperature. Beads with bound antibody-labelled exosomes were diluted in 1 ml FACS buffer and analyzed by flow cytometry (FACScalibur, Becton-Dickinson). By western-blot analysis: 5-20 μg exosomes were directly diluted in sample buffer and denaturated by heating at 60° C. for 10 min. Equal amounts of proteins were deposited in each well and proteins were resolved in SDS-PAGE and transferred onto PVDF membranes, saturated with 5% w/v non-fat milk in TBS-Tween 0.1%. […] Revelation from immunoblotting was performed by enhanced chemiluminescence and analysed by ChemiDoc imager (BioRad) or by Pxi imager (Ozyme). By sucrose gradient: the density of exosomes was measured through a sucrose gradient. […]"}, "[2]": {"system": "Bone marrow of WT or LXRαβKO mice", "experiment": "Bone marrow dendritic cell differentiation (GM-CSF) from WT or LXRαβKO mice in presence of DDA", "type": "cell-based, mouse", "method": "FIGS. 11A-B. Bone marrow was isolated from the tibia and femur of WT or LXRαβKO mice and cultivated with 20 ng/ml GM-CSF and in presence of increasing concentrations of DDA. At day 3 and 5 half of medium was replaced by fresh medium containing GM-CSF. After 7 days of culture, the percentage of (A) differentiated CD11c+CD8a dendritic cell (B) mature CD11c+CD8a+ dendritic cells (CD11c+CD8a+CD86hi CCR7hi) was measured by flow cytometry and expressed relative to the control.\nFIG. 12. Bone marrow was isolated from the tibia and femur of WT or LXRαβKO mice and cultivated with 20 ng/ml GM-CSF and in presence of increasing concentrations of DDA. At day 3 and 5 half of medium was replaced by fresh medium containing GM-CSF. After 7 days of culture, the mean of florescence (MFI) of MHC class II expressed on the surface of CD11c dendritic cells: CD11c+H2db+ was measured by flow cytometry and expressed relative to the control."}, "[3]": {"system": "E0771 tumors", "experiment": "E0771 tumor growth analysis in C57BL/6 mice treated with DDA", "type": "in vivo, mouse", "settings": "0.37 μg/kg or 20 mg/kg DDA IP every 5 days", "method": "FIGS. 4A-C. Tumor growth analysis (A) Exponentially growing E0771 cells were collected, washed twice in PBS and resuspended in PBS (300,000 cells in 100 μl PBS). E0771 tumors were prepared by subcutaneous transplantation into the flanks of C57BL/6 mice. When tumor measured 50 mm3, the mice were treated every 5 days with 0.37 μg/kg or 20 mg/kg DDA or with the solvent vehicle (control)."}, "[4]": {"system": "SKMEL-28 cells", "experiment": "Exosome production of SKMEL-28 cells (shCTRL or shLXRbeta) treated with DDA", "type": "cell-based, human", "settings": "for production of exosomes: 2.5 μM DDA for 24 h", "method": "Obtention of LXRβ knock-down cells. SKMEL28 cells ([…]) or E0771 (3×10^6) were transfected with the Neon Transfection System (Invitrogen) with 1 μg or 3 μg of small hairpin RNA targeting human LXRβ or mouse LXRβ (two different shRNA were used) or with 1 μg control ShRNA. Transfected cells were selected in multiwell plates (10 000 cells/well) with puromycin ranging from 1-10 μg/ml. Two clones transfected with two different shRNA against LXRβ with LXRβ expression knocked-down by 70% and 80% (for SKMEL28) and by 90% and 95% (for E0771) and two control clones were selected.\nExosome quantification. 1) Protein content in exosomes was quantified by the spectrophotometric method of Lowry in presence of 0.1% w/v sodium dodecyl […]. 2) Exosomes were also quantified by flow cytometry following labeling with the fluorescent lipid Bodipy-ceramide (Invitrogen-Molecular Probes) for 1 hour at 37° C. Excess of Bodipy-ceramide was removed by filtration and washing through the 1000 kDa Vivaspin filter and exosomes were quantitated by FACS. 3) Numeration of exosomes vesicles was performed either by nano tracking analysis (Nanosight equipment, Malvern, France) or by TRPS (tunable resistive pulse sensing) technology (qNano equipment, Izon, UK)."}, "[5]": {"settings": "WT, 7 days of culture (FIG. 11)"}}}
{"smiles": "CC(C)CCCC(C)[C@H]1CCC2C3C[C@@H](NCCc4cnc[nH]4)[C@@]4(O)C[C@@H](O)CC[C@]4(C)C3CC[C@@]21C", "note": "(stereo partly drawn) [DDA, 5a-hydroxy-6b-[2-(1H-imidazol-4-yl)ethylamino]cholestan-3b-ol]", "values": [{"measurement": "exosome content of rab27a and b, HSP70, Melan A, tyrosinase, TRP2, calreticuline", "setting": "[1]; exosomes from SKMEL-28-shCTRL cells", "result": "enriched"}, {"measurement": "exosome content of rab27a and b, HSP70, Melan A, tyrosinase, TRP2, calreticuline", "setting": "[1]; exosomes from SKMEL-28-shLXRbeta cells", "result": "not enriched"}, {"measurement": "MHC II expression at the surface of CD11c dendritic cells", "setting": "[2]; 1 μM DDA, WT (FIG. 12)", "result": "increases"}, {"measurement": "differentiation of CD11c into CD11c CD8a+ dendritic cells", "setting": "[2]; [5]", "result": "increases"}, {"measurement": "maturation of CD11c CD8a+ dendritic cells (CD86hi CCR7hi)", "setting": "[2]; [5]", "result": "increases"}, {"measurement": "effect on MHC II expression at the surface of CD11c dendritic cells", "setting": "[2]; in absence of LXR (LXRαβKO)", "result": "abrogated"}, {"measurement": "effect on differentiation and maturation of CD11c CD8a+ dendritic cells", "setting": "[2]; in absence of LXR (LXRαβKO)", "result": "abolished"}, {"measurement": "mice survival", "setting": "[3]", "result": "increases mice survival"}, {"measurement": "tumor growth", "setting": "[3]", "result": "inhibits tumor growth"}, {"measurement": "production of exosomes", "setting": "[4]; SKMEL-28-shCTRL cells", "result": "about 2 fold"}, {"measurement": "production of exosomes", "setting": "[4]; SKMEL-28-shLXRbeta cells", "result": "does not stimulate"}, {"measurement": "exosome secretion from human melanoma cells", "setting": "[4]; SKMEL-28 cells, data not shown", "result": "stimulates exosome secretion"}]}
